According to PMC6193938, “Characterization of a novel AICARFT inhibitor which potently elevates ZMP and has anti-tumor activity in murine models” (Scientific Reports, 2018):

Key:
A9 murine cell line = assay: In vitro proliferation assay (Alamar Blue); assay type: cell-based
Method: Cells lines were acquired from cell banks, see supplemental material, grown using the cell banks recommended culture conditions (Supplemental Table 3). In some experiments noted “low folate” the cells were washed and grown in folate free RPMI-1640 media (Gibco #27016-021) supplemented with 5 ml 1 M Hepes, 5 ml 100 mM Na pyruvate, 2.5 mg/ml glucose and 10% defined FBS (Hyclone #SH30070) per 500 mL media for 5–7 days to deplete intracellular folate levels prior to the start of the experiment. Where noted, cells were maintained in complete “high folate” RPMI-1640 media (ATCC #30-2001) with 10% defined FBS to contrast with the low folate conditions.
Cells were cultured using recommended culture conditions unless noted otherwise (Supplemental Table 3). Cells were plated, dosed with compound and incubated at 37 °C for approximately 2 doubling times as determined for each cell line. Cell Titer Glo (Promega) assay was used to measure proliferation according to manufacturer’s recommendations by measuring luminescence with Flexstation3 (Molecular Devices) with 500 ms integration time. […]
For a limited number of cell lines, compound dosing was performed under high or low folate conditions with cell viability being determined with Alamar Blue rather than an ATP dependent assay. […] The % inhibition for each sample was calculated and fit as described above.

[1] = system: AMPK T172 phosphorylation in MDA-MB-231met2 tumors; assay: Western analysis of tumors; assay type: in vivo, mouse; conditions: 30 and 60 mg/kg BIDx22 PO
Method: (§1) The levels of total AMPKα and P70S6K are also shown. […] The levels of total AMPKα are also shown. […] Full images and the croppings used in this figure are shown in Supplemental Figures S14–S21.
(§2) Antibodies were purchased as follows: pAMPK Thr172 (Cell Signaling #2535), p-p70S6 Thr389 (Cell Signaling #9205), total p70S6 (Cell Signaling #2708), total AMPKα (Cell Signaling #2793) and Actin (Sigma #A5441). Frozen tumor samples were lysed with 500 µL ice cold lysis buffer plus Halt protease inhibitor (ThermoFisher #78430) using a Power Gen 125 tissue grinder (Fisher Scientific). Western blots were run as described in the supplemental material.
(§3) For the in vivo study with MDA-MB-231met2 (Figure 6A) 40 ug of total protein was resolved on a 10% Tris HCl Criterion XT precast gel (BioRad) at 100 V for 90 minutes. Transfer electrophoresed proteins to a 0.2 µm nitrocellulose membrane using Trans Blot Turbo System (BioRad). Block membranes for 1 hr at RT in 5% skim milk. Probe overnight 4°C for primary antibodies. Blots were washed 3-5 min in 20 mL TBS-0.1% Tween-20. Apply appropriate secondary antibody for 1-3 hours RT. Wash blots 3 x 5 min in 20 mL TBS-0.1% Tween20 and develop signal using Super Signal Western Femto kit (Thermo) on Image Reader LAS-4000 (Fuji Film Life Science).

[2] = system: P70S6K T389 phosphorylation in MDA-MB-231met2 tumors; assay: Western analysis of tumors; assay type: in vivo, mouse; conditions: 30 and 60 mg/kg BIDx22 PO
Method: as §1, §2, §3

CDK4 = target: T1, CDK4 (Homo sapiens, UniProt P11802); assay: CEREP protein kinase assay; assay type: biochemical
T1 construct: purchased CEREP Panlabs (Eurofins)

FGFR3 = target: T2, FGFR3 (Homo sapiens, UniProt P22607); assay: CEREP protein kinase assay; assay type: biochemical
T2 construct: purchased CEREP Panlabs (Eurofins)

MUSK = target: T3, MUSK (Homo sapiens, UniProt O15146); assay: CEREP protein kinase assay; assay type: biochemical
T3 construct: purchased CEREP Panlabs (Eurofins)
T3 sequence (O15146 24-869): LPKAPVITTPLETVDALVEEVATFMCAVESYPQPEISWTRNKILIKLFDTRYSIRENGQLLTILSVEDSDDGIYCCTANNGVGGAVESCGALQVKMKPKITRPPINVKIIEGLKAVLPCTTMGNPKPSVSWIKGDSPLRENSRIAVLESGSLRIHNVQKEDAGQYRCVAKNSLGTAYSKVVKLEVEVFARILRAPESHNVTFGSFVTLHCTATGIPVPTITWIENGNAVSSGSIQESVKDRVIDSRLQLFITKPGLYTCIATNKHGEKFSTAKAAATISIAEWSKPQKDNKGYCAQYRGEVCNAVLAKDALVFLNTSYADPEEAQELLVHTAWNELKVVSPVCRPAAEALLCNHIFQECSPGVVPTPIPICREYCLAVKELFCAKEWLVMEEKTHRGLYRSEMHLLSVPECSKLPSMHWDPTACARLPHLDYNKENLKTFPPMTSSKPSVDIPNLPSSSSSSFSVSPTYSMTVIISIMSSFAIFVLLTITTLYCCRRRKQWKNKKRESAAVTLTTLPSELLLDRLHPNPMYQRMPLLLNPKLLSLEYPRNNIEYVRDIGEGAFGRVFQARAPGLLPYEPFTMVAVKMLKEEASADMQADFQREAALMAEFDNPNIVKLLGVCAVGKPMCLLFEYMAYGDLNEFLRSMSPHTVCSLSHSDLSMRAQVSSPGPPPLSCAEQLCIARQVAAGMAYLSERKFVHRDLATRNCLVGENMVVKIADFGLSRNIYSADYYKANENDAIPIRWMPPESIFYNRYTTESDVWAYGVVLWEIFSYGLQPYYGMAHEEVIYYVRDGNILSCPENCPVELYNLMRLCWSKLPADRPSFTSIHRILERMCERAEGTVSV

TAK1 = target: T4, TAK1 (Homo sapiens, UniProt O43318); assay: CEREP protein kinase assay; assay type: biochemical
T4 construct: purchased CEREP Panlabs (Eurofins)
T4 sequence (O43318 1-303 limits assumed): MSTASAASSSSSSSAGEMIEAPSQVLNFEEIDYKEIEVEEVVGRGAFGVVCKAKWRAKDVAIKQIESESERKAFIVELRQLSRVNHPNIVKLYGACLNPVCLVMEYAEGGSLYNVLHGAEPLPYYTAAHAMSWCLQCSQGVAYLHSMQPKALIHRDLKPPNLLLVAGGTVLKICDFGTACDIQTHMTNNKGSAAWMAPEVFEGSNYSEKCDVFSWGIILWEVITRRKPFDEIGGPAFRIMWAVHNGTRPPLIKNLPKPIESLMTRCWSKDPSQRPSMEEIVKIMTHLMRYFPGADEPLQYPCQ
T4 sequence (Q15750 437-504 partner limits assumed): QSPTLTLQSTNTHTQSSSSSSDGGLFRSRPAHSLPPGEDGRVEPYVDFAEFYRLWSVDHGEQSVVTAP

T1 sequence (P11802 whole entry): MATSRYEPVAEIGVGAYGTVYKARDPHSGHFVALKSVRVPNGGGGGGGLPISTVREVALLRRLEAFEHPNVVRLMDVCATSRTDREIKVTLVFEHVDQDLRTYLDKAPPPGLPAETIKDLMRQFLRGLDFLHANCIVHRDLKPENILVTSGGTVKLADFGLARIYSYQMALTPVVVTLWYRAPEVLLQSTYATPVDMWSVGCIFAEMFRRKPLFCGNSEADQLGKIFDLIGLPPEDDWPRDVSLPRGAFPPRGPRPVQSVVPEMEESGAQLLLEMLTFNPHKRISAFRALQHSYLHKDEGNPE
T1 sequence (P24385 whole entry partner): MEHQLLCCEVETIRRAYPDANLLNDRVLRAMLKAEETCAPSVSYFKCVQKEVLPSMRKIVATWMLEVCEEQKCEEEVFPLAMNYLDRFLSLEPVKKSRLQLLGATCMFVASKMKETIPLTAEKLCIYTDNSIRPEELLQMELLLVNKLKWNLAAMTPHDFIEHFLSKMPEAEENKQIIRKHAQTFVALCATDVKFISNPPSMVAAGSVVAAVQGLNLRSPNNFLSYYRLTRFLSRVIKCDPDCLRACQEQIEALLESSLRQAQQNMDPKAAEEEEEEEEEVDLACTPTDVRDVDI
T2 sequence (P22607 23-806): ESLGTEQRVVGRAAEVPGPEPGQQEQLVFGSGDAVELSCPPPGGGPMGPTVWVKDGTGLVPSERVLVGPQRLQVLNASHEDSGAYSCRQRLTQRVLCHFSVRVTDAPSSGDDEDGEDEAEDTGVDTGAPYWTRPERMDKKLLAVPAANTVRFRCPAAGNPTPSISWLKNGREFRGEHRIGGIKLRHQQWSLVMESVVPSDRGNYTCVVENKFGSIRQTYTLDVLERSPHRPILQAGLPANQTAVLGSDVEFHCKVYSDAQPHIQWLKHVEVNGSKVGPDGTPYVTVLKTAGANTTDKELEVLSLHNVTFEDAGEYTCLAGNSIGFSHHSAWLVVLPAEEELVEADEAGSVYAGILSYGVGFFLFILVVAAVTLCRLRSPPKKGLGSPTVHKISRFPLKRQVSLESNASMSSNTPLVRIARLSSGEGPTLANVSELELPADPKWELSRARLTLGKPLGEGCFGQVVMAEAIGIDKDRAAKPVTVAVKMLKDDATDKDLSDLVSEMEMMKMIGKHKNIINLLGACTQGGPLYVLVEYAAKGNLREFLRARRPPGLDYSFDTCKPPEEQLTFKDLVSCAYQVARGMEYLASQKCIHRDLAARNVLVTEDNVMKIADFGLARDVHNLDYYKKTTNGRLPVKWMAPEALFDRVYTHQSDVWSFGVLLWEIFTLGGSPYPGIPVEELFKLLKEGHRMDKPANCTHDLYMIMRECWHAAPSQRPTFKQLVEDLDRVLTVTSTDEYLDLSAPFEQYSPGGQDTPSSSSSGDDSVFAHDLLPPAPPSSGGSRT

SMILES: O=c1[nH]ccc2cc(F)c(NS(=O)(=O)c3ccc(N4CC[C@@H](O)C4)s3)cc12 [LSN3213128, N-(6-Fluoro-1-oxo-1,2-dihydroisoquinolin-7-yl)-5-[(3R)-3-hydroxypyrrolidin-1-yl]thiophene-2-sulfonamide]
- IC50 (A9 murine cell line; Mus musculus, RPMI media): 230 nM
- anti-proliferative effect on hypoxanthine supplementation (A9 murine cell line; hypoxanthine): not reversed
- AMPK T172 phosphorylation levels in vivo [1]: remained elevated
- P70S6K T389 phosphorylation [2]: showed no change
- inhibition at 0.2 µM (CDK4; @ 0.2 uM): -1.51%
- inhibition at 2 µM (CDK4; @ 2 uM): 2.45%
- inhibition at 20 µM (CDK4; @ 20 uM): 37.2%
- inhibition at 0.2 µM (FGFR3; @ 0.2 uM): 3.62%
- inhibition at 2 µM (FGFR3; @ 2 uM): 13.2%
- inhibition at 20 µM (FGFR3; @ 20 uM): 47%
- inhibition at 0.2 µM (MUSK; @ 0.2 uM): -4.24%
- inhibition at 2 µM (MUSK; @ 2 uM): 5.22%
- inhibition at 20 µM (MUSK; @ 20 uM): -2.74%
- inhibition at 0.2 µM (TAK1; @ 0.2 uM): -0.355%
- inhibition at 2 µM (TAK1; @ 2 uM): 4.6%
- inhibition at 20 µM (TAK1; @ 20 uM): 19.3%
